In publication PMC8551653, “Bisphenol A derivatives act as novel coactivator-binding inhibitors for estrogen receptor β” (The Journal of Biological Chemistry, 2021):
“Also recorded” adds a separate entry of the source.

Columns and labels:
[1] = target: T1, ERβ (Homo sapiens, UniProt Q92731); assay: Luciferase reporter gene assay in HeLa cells, antagonistic activity against 10 nM E2; assay type: cell-based; set-up: expressed in transfected cells; host or cells: HeLa; conditions: against 10 nM E2-induced ERβ activation; 100 nM, 1 μM, 10 μM
Protocol: (§1) HeLa cells were maintained in Eagle's minimum essential medium (Nissui Pharmaceutical Co, Ltd) supplemented with DCC-treated fetal bovine serum (10%, v/v) at 37 °C under 5% CO2. […] After a 24-h incubation, luciferase activity was measured using the ONE-Glo Luciferase Assay System (Promega Co) on an EnSpire multimode plate reader (PerkinElmer, Inc).
Target sequence in this assay (Q92731 whole entry): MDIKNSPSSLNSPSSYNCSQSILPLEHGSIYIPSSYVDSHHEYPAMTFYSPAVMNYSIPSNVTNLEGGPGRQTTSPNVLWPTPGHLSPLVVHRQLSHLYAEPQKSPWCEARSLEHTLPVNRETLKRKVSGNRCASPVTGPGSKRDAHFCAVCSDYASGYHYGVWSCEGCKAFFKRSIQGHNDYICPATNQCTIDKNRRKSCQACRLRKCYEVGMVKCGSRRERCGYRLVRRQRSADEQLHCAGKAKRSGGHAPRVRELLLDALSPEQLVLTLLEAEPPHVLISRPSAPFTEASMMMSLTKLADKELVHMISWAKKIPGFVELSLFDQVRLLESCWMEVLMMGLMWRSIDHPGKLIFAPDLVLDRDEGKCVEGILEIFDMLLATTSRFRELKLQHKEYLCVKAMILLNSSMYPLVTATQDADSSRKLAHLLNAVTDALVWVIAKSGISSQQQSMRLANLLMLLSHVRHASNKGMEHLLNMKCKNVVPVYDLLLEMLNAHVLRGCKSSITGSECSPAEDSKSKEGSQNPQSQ

[2] = target: T2, ERβ(W335A) (Homo sapiens, UniProt Q92731, W335A); assay: Competitive binding assay for ERβ(W335A); set-up: made in house; host or cells: Escherichia coli BL21α (described for the wild-type LBD); conditions: Fig. 4B
Protocol: (§2) After successive incubation with 100 μl of 0.4% dextran-coated charcoal (DCC) (Sigma-Aldrich) in PBS (pH 7.4) on ice for 10 min, free radioligands bound to DCC were removed using a vacuum filtration system with a 96-well filtration plate (MultiScreenHTS HV, […], Merck KGaA) for the bound/free separation. The radioactivity of each eluent was measured using a liquid scintillation counter (LS6500; Beckman Coulter) and Clear-sol I (Nacalai Tesque Inc). […] Each compound was dissolved in dimethyl sulfoxide to prepare a 1.0 mM stock solution and further diluted to prepare serial dilutions (10^−12 M to 10^−5 M) in the binding buffer. […] Bound/free separation was performed as described above, and the radioactivity was determined using a MicroBeta microplate counter (PerkinElmer Inc). The IC50 value of each test compound was calculated from the dose–response curves generated via nonlinear regression analysis using Prism software (GraphPad Software Inc).
Target sequence in this assay (Q92731 263-530 W335A): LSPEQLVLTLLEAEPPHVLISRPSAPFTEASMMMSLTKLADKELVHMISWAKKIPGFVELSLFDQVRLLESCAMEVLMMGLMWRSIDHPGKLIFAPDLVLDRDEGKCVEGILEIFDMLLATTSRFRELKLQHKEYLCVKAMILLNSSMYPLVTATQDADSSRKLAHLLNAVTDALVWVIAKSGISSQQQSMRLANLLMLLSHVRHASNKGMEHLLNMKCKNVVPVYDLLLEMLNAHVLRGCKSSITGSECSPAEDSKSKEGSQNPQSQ

[3] = target: T2, ERβ(W335A); assay: Luciferase reporter gene assay in HeLa cells, ERβ(W335A); assay type: cell-based; set-up: expressed in transfected cells; host or cells: HeLa
Protocol: as §1, with “After incubation for 24 h, cells were harvested and seeded onto 96-well plates at 5 × 10^4 cells/well, and then treated with a series of the test compounds (10^−12 M to 10^−5 M, final concentration) diluted with 1% bovine serum albumin/PBS (v/v). After” for “After”
Target sequence in this assay (Q92731 whole entry W335A, the tested form may be a part): as the sequence (Q92731 whole entry) above, with W335A counted along it

[4] = target: T1, ERβ; assay: Luciferase reporter gene assay in HeLa cells, agonistic activity; assay type: cell-based; set-up: expressed in transfected cells; host or cells: HeLa; conditions: HeLa cells, WT ERβ; listed as BPA
Protocol: as §1
Target sequence in this assay (Q92731 whole entry): as the sequence (Q92731 whole entry) above

[5] = target: T1, ERβ; assay: Radioligand competitive binding assay with [3H]E2 for ERβ (GST-ERβ-LBD); set-up: made in house; host or cells: Escherichia coli BL21α; conditions: relative to E2
Protocol: Human ERβ cDNA was obtained from OriGene Technologies. The cDNA of ERβ-LBD was amplified using PCR and subcloned into a pGEX-6p-1 expression vector. The expression of GST-fused ERβ-LBD was induced by 1 mM IPTG in Escherichia coli BL21α at 16 °C for overnight. The resulting crude protein was affinity-purified using Glutathione-Sepharose 4B (Cytiva), followed by gel filtration using a Sephadex G-10 column (Cytiva).
Target sequence in this assay (Q92731 263-530): as the sequence (Q92731 263-530 W335A) above, with A73W counted along it

[6] = target: T1, ERβ; assay: Competitive binding assay with [3H]4OHT for WT ERβ; set-up: made in house; host or cells: Escherichia coli BL21α; conditions: [3H]4OHT radioligand
Protocol: as §2
Target sequence in this assay (Q92731 263-530): as the sequence (Q92731 263-530 W335A) above, with A73W counted along it

[7] = target: T3, GST-fused ligand-binding domain of human estrogen receptor β (amino acids 263–530) (human, UniProt Q92731 263-530); assay: SPR; Biacore T100; GST-ERβ-LBD incubated with 10 μM E2 for 1 h, captured on anti-GST antibody on a CM5 chip at 25 °C; SRC1 peptide injected with E2; HBS-EP+ buffer (0.01 M Hepes pH 7.4, 0.15 M NaCl, 3 mM EDTA, 0.05% Surfactant P20); conditions: both partners purified
T3 construct: cDNA from OriGene Technologies; Subcloned into pGEX-6p-1; Captured on the chip through an anti-GST antibody; Incubated beforehand with 10 μM E2 or 10 μM BPC (small molecules) in two of the three SPR conditions; also called GST-ERβ-LBD; ERβ-LBD; source: E. coli BL21α, purified (Glutathione-Sepharose 4B, gel filtration on Sephadex G-10)
T3 sequence (Q92731 263-530): as the sequence (Q92731 263-530 W335A) above, with A73W counted along it

[8] = target: T3, GST-fused ligand-binding domain of …; assay: SPR; Biacore T100; GST-ERβ-LBD incubated with 10 μM BPC for 1 h, captured on anti-GST antibody on a CM5 chip at 25 °C; SRC1 peptide injected with BPC; HBS-EP+ buffer; conditions: both partners purified
[9] = target: T3, GST-fused ligand-binding domain of …; assay: SPR; Biacore T100; GST-ERβ-LBD without E2, captured on anti-GST antibody on a CM5 chip; SRC1 peptide injected; HBS-EP+ buffer; conditions: both partners purified

Molecule | ERβ antagonist activity (in words) [1] | shape of competitive binding curve, ERβ(W335A) [2] | transcriptional activity on ERβ(W335A) (in words) [3] | ERβ agonist activity (in words) [4] | affinity for ERβ, times weaker than that of E2 [5] [times] | shape of competitive binding curve, WT ERβ [6] | Kd [7] [µM] | Kd [8] [µM] | Kd [9] [µM]
CC(C)(c1ccc(O)cc1)c1ccc(O)cc1 [Compound 19, 4,4'-(propane-2,2-diyl)diphenol] | did not elicit antagonistic activity | typical sigmoidal competitive dose–response curve | lost | full agonist activity; also recorded: strongest ERβ agonistic activity; also recorded: strong transcriptional activity | 400 | sigmoidal curve |  |  | 
ERHKILHRLLQEG (source: synthetic peptide (ABI 433A, solid phase, Fmoc chemistry)) [SRC1 peptide (amino acids 685–697) derived from human nuclear receptor coactivator 1] |  |  |  |  |  |  | 3.3 | 16.4 | 9.1
